# Data reported in paper PMC4992173, “Divergent synthesis and identification of the cellular targets of deoxyelephantopins” (Nature Communications, 2016).
# Tested on: four different cancer cell lines (MCF7, Caco-2, HeLa, MDA-MB-231)
# Assay: Cell viability (EC50) in four different cancer cell lines, 3 days, nuclei count
# Assay type: cell-based
# Details: all four tested cell lines
# Procedure: We began our biological investigations by assaying the cytotoxicity of natural deoxyelephantopin (DEP) and its unnatural analogues in four different cancer cell lines (Fig. 5a, Supplementary Figs 6–8).
# Figure 5 Assessing the cytotoxicity of deoxyelephantopin (DEP) and analogues. (a) Cell viability measurements in four different cancer cell lines. Cells were treated with compounds for 3 days, the nuclei were stained with DAPI and counted (EC50 values±s.d. shown; n=3). **P<0.005 and ***P<0.0005 by two-sided Student's t-test. (b) Detection of caspase activation and apoptosis in MCF7 cells using FITC-VAD-FMK fluorescent probe (top) or Annexin V staining (bottom). The cells were treated with 1 μM staurosporine (positive control) or 20 μM deoxyelephantopin for 8 h. Confocal microscopy images are shown. EC50, effector concentration for half-maximum response. Scale bars, 30μm. […]
# Biological materials. […] Protein concentration was determined using the Bradford assay (Bio-Rad).
# Cell culture and preparation of lysates. […] Cells were lysed by sonication to form cell lysates and protein concentration was determined using the Bradford […]
# ’ cells/mL and HeLa: 1 ’ cells/mL) in a 96-well plate and allowed to attach overnight. […] Cells were imaged using a SpectraMax i3 plate reader equipped with a SpectraMax MiniMax imaging cytometer (Molecular Devices). […]
# Caspase activity labeling for fluorescence cell imaging. […]
smiles,measurement,value
C#CCC[C@H](OC(=O)C(=C)C)[C@H]1C(=C)C(=O)O[C@@H]1c1ccccc1 [24c],cytotoxicity rank among alkyne-tagged analogues 24,highest cytotoxicity
